Test [1] deals with α-glucosidase from Saccharomyces cerevisiae. Put plainly: α-glucosidase inhibition. In kind it is biochemical. The conditions noted are these: read-out: Inhibitory activity (IC50) on α-glucosidase; mean ± SD; pNPG substrate, pH 6.8, 37 °C.
Test [2] deals with T1, porcine pancreatic amylase (Sus scrofa, UniProt P00690).
T1 sequence (P00690 16-511): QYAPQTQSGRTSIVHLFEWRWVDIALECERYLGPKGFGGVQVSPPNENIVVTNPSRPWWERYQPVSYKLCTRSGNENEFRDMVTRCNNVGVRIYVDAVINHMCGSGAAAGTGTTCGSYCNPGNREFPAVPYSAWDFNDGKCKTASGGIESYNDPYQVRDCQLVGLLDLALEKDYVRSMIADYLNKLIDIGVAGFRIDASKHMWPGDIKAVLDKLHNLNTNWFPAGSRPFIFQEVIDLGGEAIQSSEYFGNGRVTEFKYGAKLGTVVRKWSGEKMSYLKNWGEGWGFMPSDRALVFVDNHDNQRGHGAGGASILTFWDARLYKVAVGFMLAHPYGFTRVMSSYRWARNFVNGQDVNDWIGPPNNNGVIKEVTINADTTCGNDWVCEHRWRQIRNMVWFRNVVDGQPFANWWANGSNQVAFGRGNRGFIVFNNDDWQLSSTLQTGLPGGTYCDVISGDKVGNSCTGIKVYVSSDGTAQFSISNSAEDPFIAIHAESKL
Put plainly: biochemical.

The target of test [3] is T2, lipase from porcine pancreas (Sus scrofa, UniProt P00591).
T2 sequence (P00591 1-450): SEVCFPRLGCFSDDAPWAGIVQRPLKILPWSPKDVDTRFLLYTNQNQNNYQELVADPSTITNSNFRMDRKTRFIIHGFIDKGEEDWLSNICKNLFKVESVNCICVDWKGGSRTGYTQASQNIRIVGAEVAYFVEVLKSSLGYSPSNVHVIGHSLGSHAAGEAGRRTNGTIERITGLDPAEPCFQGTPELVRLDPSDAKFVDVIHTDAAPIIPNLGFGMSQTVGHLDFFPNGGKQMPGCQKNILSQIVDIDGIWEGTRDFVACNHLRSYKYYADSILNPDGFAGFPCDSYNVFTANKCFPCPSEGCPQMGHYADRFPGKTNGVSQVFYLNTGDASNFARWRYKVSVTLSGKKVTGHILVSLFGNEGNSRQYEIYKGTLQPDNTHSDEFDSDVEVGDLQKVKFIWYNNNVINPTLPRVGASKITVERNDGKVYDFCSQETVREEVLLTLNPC
As to the kind of experiment: pancreatic lipase inhibition. It is filed as biochemical.

This passage reports IC50 results from paper PMC9016878 (ACS Omega, 2022).

For orientation: IC50 means the point on the concentration scale where inhibition reaches its midpoint.

As to `C[C@@H]1CC[C@]2(C(=O)O)CC[C@]3(C)C(=CC[C@@H]4[C@@]5(C)[C@H](O)C(=O)[C@H](O)C(C)(C)[C@@H]5CC[C@]43C)[C@@H]2[C@]1(C)O` [compound 7, 1-hydroxy-2-oxopomolic acid], the IC50 in test [1] came to 192 ± 13.8 µM.

Consider `CC[C@H](CC[C@@H](C)[C@H]1CC[C@H]2[C@@H]3CC=C4C[C@@H](O[C@@H]5O[C@H](CO)[C@@H](O)[C@H](O)[C@H]5O)CC[C@]4(C)[C@H]3CC[C@]12C)C(C)C` [compound 14, β-sitosterol glucoside], for which the concentration for half-maximal inhibition (IC50) in test [2] is 113 ± 3.51 µM.

Consider `C[C@@H]1CC[C@]2(C(=O)O)CC[C@]3(C)C(=CC[C@@H]4[C@@]5(C)CC[C@H](O)C(C)(C)[C@@H]5CC[C@]43C)[C@@H]2[C@]1(C)O` [compound 13, pomolic acid], for which the concentration for half-maximal inhibition (IC50) was found to be 85.5 ± 6.87 µM in test [1], 142 ± 6.15 µM in test [2] and 458 ± 72.8 µM in test [3].
